# Calls of active or inactive are those of the source. No cut-off for these calls is given here.
# What was measured:
# Escherichia coli [1] = experiment: Antibacterial activity against ESBL producing Escherichia coli ATCC 35218 after 20 to 22 hrs; assay type: functional
# Escherichia coli [2] = experiment: Antibacterial activity against Escherichia coli K-12 MG1655 after 20 to 22 hrs; details: K-12 substr. MG1655
# Escherichia coli [3] = experiment: Antibacterial activity against tolC-deficient Escherichia coli K-12 MG1655 after 20 to 22 hrs; assay type: functional; details: K-12 substr. MG1655
# Escherichia coli [4] = experiment: Antibacterial activity against hyperpermeable Escherichia coli D22 harboring LpxC mutant after 20 to 22 hrs
# Pseudomonas aeruginosa [5] = experiment: Antibacterial activity against Pseudomonas aeruginosa PAO1 after 20 to 22 hrs; assay type: functional
# Pseudomonas aeruginosa [6] = experiment: Antibacterial activity against Pseudomonas aeruginosa PAO750 harboring mexAB-oprM/mexCD-oprJ/mexEF-oprN/mexXY/opmH/mexJK/pscC deletion mutant after 20 to 22 hrs; assay type: functional
# Staphylococcus aureus [7] = experiment: Antibacterial activity against methicillin-resistant Staphylococcus aureus ATCC 33592 after 20 to 22 hrs; assay type: functional
# [8] = Cytotoxicity against human HepG2 cells assessed as decrease in cell viability after 40 hrs by Celltiter Glo assay
# Escherichia coli [9] = experiment: Inhibition of DNA synthesis in tolC-deficient Escherichia coli K-12 MG1655 at MIC to 8 times MIC after 5 to 120 mins by [methyl-3H]-thymidine incorporation assay; assay type: functional, organism-based; details: K-12 substr. MG1655
# Acinetobacter baumannii [10] = experiment: Antibacterial activity against Acinetobacter baumannii BM4652 harboring adeABC/adeIJK deletion mutant after 20 to 22 hrs; assay type: functional
# Klebsiella pneumoniae [11] = experiment: Antibacterial activity against tolC-deficient Klebsiella pneumoniae 1161486a after 20 to 22 hrs; assay type: functional
# Acinetobacter baumannii [12] = experiment: Antibacterial activity against Acinetobacter baumannii BM4454 after 20 to 22 hrs; assay type: functional
# Klebsiella pneumoniae [13] = experiment: Antibacterial activity against Klebsiella pneumoniae 1161486 after 20 to 22 hrs; assay type: functional
# Staphylococcus aureus [14] = experiment: Antibacterial activity against methicillin-resistant Staphylococcus aureus ATCC 33592 after 20 to 22 hrs in presence of 50% calf fetal serum; assay type: functional, organism-based
# Staphylococcus aureus [15] = experiment: Antibacterial activity against methicillin-resistant Staphylococcus aureus ATCC 33592 after 20 to 22 hrs in presence of 50% mouse serum; assay type: functional, organism-based
# [16] = Thermodynamic aqueous solubility of the compound at pH 7.4; details: aqueous solution
# [17] = Apparent permeability across human Caco2 cells; details: Caco-2
# [18] = Drug metabolism in human liver microsomes at 5 uM after 20 mins in presence of NADPH; assay type: ADME, microsome; details: read-out: Drug metabolism
# [19] = Drug metabolism in mouse liver microsomes at 5 uM after 20 mins in presence of NADPH; assay type: ADME, microsome; details: read-out: Drug metabolism
# [20] = Drug metabolism in rat liver microsomes at 5 uM after 20 mins in presence of NADPH; assay type: ADME, microsome; details: read-out: Drug metabolism
# Cytochrome P450 3A4 [21] = molecular target: T1, Cytochrome P450 3A4 (Homo sapiens, UniProt P08684); experiment: Inhibition of CYP3A4-mediated midazolam metabolism in human liver microsomes
# Cytochrome P450 3A4 [22] = molecular target: T1, Cytochrome P450 3A4; experiment: Inhibition of CYP3A4-mediated testosterone metabolism in human liver microsomes
# [23] = molecular target: Voltage-gated inwardly rectifying potassium channel KCNH2 (Homo sapiens, UniProt Q12809); experiment: Inhibition of human ERG transfected in CHO cells by patch clamp method
# [24] = Metabolic stability in mouse plasma at 1 uM after 4 hrs; assay type: ADME, cell-free; details: read-out: Stability
# [25] = Metabolic stability in rat plasma at 1 uM after 4 hrs; assay type: ADME, cell-free; details: read-out: Stability
# L5178Y [26] = experiment: Genotoxicity in mouse L5178Y cells after 23 hrs in absence of S9 fraction by micronucleus test; assay type: toxicity, cell-based
# L5178Y [27] = experiment: Genotoxicity in mouse L5178Y cells after 3 hrs in presence of S9 fraction by micronucleus test; assay type: toxicity, cell-based; details: s9, 3 h
# Staphylococcus aureus [28] = experiment: Antibacterial activity against wild type Staphylococcus aureus RN4220 after 20 to 22 hrs; assay type: functional
# Staphylococcus aureus [29] = experiment: Antibacterial activity against Staphylococcus aureus RN4220 harboring GyrA D83N mutant after 20 to 22 hrs; assay type: functional
# Staphylococcus aureus [30] = experiment: Antibacterial activity against Staphylococcus aureus RN4220 harboring GyrA D83N/ParC D79N double mutant after 20 to 22 hrs; assay type: functional
# Staphylococcus aureus [31] = experiment: Antibacterial activity against Staphylococcus aureus RN4220 harboring GyrB D437N mutant after 20 to 22 hrs; assay type: functional
# Staphylococcus aureus [32] = experiment: Antibacterial activity against Staphylococcus aureus RN4220 harboring ParC S80F mutant after 20 to 22 hrs; assay type: functional
# Staphylococcus aureus [33] = experiment: Antibacterial activity against Staphylococcus aureus RN4220 harboring ParC S80F/GyrA S84L double mutant after 20 to 22 hrs; assay type: functional
# Klebsiella pneumoniae [34] = experiment: Antibacterial activity against wild type Klebsiella pneumoniae 1161486 after 20 to 22 hrs; assay type: functional
# Klebsiella pneumoniae [35] = experiment: Antibacterial activity against Klebsiella pneumoniae 1161486 harboring GyrA S83I mutant after 20 to 22 hrs; assay type: functional
# Klebsiella pneumoniae [36] = experiment: Antibacterial activity against Klebsiella pneumoniae 1161486 harboring GyrA S83I/ParC S80I double mutant after 20 to 22 hrs; assay type: functional
# Klebsiella pneumoniae [37] = experiment: Antibacterial activity against Klebsiella pneumoniae 1161486 harboring GyrA S83F/D87V/ParC S80I triple mutant after 20 to 22 hrs; assay type: functional
# Escherichia coli [38] = experiment: Antibacterial activity against Escherichia coli K-12 MG1655 harboring GyrA S83L/D87N/ParC S80I triple mutant after 20 to 22 hrs; assay type: functional; details: K-12 substr. MG1655
# Staphylococcus aureus [39] = experiment: Resistance factor, ratio of MIC for Staphylococcus aureus RN4220 harboring GyrA D83N mutant to MIC for wild type Staphylococcus aureus RN4220; assay type: functional
# Staphylococcus aureus [40] = experiment: Resistance factor, ratio of MIC for Staphylococcus aureus RN4220 harboring GyrA D83N/ParC D79N double mutant to MIC for wild type Staphylococcus aureus RN4220; assay type: functional
# Staphylococcus aureus [41] = experiment: Resistance factor, ratio of MIC for Staphylococcus aureus RN4220 harboring GyrB D437N mutant to MIC for wild type Staphylococcus aureus RN4220; assay type: functional
# Staphylococcus aureus [42] = experiment: Resistance factor, ratio of MIC for Staphylococcus aureus RN4220 harboring ParC S80F mutant to MIC for wild type Staphylococcus aureus RN4220; assay type: functional
# Staphylococcus aureus [43] = experiment: Resistance factor, ratio of MIC for Staphylococcus aureus RN4220 harboring ParC S80F/GyrA S84L double mutant to MIC for wild type Staphylococcus aureus RN4220; assay type: functional
# Klebsiella pneumoniae [44] = experiment: Resistance factor, ratio of MIC for Klebsiella pneumoniae 1161486 harboring GyrA S83I mutant to MIC for wild type Klebsiella pneumoniae 1161486; assay type: functional
# Klebsiella pneumoniae [45] = experiment: Resistance factor, ratio of MIC for Klebsiella pneumoniae 1161486 harboring GyrA S83I/ParC S80I double mutant to MIC for wild type Klebsiella pneumoniae 1161486; assay type: functional
# Klebsiella pneumoniae [46] = experiment: Resistance factor, ratio of MIC for Klebsiella pneumoniae 1161486 harboring GyrA S83F/D87V/ParC S80I triple mutant to MIC for wild type Klebsiella pneumoniae 1161486; assay type: functional
# Escherichia coli [47] = experiment: Resistance factor, ratio of MIC for Escherichia coli K-12 MG1655 harboring GyrA S83L/D87N/ParC S80I triple mutant to MIC for wild type Escherichia coli K-12 MG1655; assay type: functional, K-12 substr. MG1655
# Escherichia coli [48] = experiment: Antibacterial activity against tolC-deficient fluoroquinolones-sensitive Escherichia coli JC7623 clinical isolate harboring wild type DNA gyrase after 20 to 22 hrs
# Escherichia coli [49] = experiment: Antibacterial activity against tolC-deficient fluoroquinolones-resistant Escherichia coli W4753 clinical isolate harboring DNA gyrase S83L/D87N/ParC S80I/ParE S458A mutant after 20 to 22 hrs
# Escherichia coli [50] = experiment: Resistance factor, ratio of MIC for 4 times MIC-treated tolC-deficient Escherichia coli ATCC 25922 harboring DR76_3503 Q47H mutant to MIC for tolC-deficient Escherichia coli ATCC 25922; assay type: functional
# Escherichia coli [51] = experiment: Resistance factor, ratio of MIC for 4 times MIC-treated tolC-deficient Escherichia coli ATCC 25922 to MIC for tolC-deficient Escherichia coli ATCC 25922; assay type: functional
# DNA gyrase = DNA gyrase (Escherichia coli, UniProt P0AES4+P0AES6)
# Description: Inhibition of Escherichia coli DNA gyrase A2B2 using relaxed pNO1 as substrate
# T1 sequence (P08684 whole entry): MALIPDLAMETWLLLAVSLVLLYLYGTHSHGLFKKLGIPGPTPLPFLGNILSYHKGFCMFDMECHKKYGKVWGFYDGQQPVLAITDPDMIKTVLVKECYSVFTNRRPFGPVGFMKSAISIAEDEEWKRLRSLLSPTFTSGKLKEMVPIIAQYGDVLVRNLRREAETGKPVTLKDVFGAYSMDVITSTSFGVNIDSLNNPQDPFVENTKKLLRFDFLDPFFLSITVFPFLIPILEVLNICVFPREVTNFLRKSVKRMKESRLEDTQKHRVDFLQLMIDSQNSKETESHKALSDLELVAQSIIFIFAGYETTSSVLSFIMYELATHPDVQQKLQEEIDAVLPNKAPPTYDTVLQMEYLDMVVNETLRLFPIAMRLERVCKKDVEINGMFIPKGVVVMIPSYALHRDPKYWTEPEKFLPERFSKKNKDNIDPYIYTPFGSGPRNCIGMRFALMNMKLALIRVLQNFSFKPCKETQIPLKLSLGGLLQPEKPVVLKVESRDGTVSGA
# Sequence of Voltage-gated inwardly rectifying potassium channel KCNH2 (Q12809 whole entry): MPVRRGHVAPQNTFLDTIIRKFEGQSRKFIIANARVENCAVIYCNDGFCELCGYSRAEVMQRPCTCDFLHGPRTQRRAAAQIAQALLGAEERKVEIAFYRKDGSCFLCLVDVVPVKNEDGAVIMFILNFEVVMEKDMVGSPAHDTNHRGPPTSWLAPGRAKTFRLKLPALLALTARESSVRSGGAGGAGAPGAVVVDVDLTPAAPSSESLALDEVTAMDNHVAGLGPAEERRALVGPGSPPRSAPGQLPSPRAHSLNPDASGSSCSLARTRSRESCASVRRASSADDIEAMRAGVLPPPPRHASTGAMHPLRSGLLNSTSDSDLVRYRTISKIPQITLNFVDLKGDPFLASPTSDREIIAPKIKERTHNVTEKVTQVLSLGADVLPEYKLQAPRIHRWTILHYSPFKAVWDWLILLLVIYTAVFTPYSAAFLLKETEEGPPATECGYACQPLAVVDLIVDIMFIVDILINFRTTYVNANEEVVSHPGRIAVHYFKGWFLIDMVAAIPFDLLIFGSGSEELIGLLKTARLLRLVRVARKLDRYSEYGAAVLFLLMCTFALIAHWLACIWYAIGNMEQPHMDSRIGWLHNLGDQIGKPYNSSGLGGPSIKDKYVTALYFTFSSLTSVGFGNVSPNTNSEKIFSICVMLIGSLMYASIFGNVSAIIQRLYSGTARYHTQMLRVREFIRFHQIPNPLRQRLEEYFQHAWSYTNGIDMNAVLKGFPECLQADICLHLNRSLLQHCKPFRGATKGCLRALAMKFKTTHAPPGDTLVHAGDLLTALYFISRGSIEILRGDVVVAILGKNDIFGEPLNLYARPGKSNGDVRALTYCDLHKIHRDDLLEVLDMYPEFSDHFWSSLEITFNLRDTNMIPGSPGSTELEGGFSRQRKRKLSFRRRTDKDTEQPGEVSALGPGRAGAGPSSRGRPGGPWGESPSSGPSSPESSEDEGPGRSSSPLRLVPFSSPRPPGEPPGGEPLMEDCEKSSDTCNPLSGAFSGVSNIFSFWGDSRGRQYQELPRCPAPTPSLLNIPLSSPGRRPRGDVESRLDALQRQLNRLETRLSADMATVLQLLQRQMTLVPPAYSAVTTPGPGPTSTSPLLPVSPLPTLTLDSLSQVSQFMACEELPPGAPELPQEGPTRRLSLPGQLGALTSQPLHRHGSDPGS
structure (smiles),measurement,setting,value
N[C@H]1CCN(c2cc3c(cc2F)n2ccnc2c(=O)n3C2CC2)C1,MIC,Escherichia coli [1],4 µg/mL
same,MIC,Escherichia coli [2],8 µg/mL
same,MIC,Escherichia coli [3],< 0.125 µg/mL
same,MIC,Escherichia coli [4],2 µg/mL
same,MIC,Pseudomonas aeruginosa [5],32 µg/mL
same,MIC,Pseudomonas aeruginosa [6],< 0.125 µg/mL
same,MIC,Staphylococcus aureus [7],8 µg/mL
same,CC50 at 40 h,[8],> 30 µM
same,inhibition,Escherichia coli [9],Active
same,MIC,Acinetobacter baumannii [10],4 to 8 µg/mL
same,MIC,Klebsiella pneumoniae [11],0.5 µg/mL
same,MIC,Acinetobacter baumannii [12],> 64 µg/mL
same,MIC,Klebsiella pneumoniae [13],32 µg/mL
same,Activity,Staphylococcus aureus [14],Active
same,Activity,Staphylococcus aureus [15],Active
same,solubility thermodynamic,[16],1130 µg/mL
same,Papp,[17],0.4 ×10⁻⁶ cm/s
same,"metabolised at 20 min, 5 µM",[18],6%
same,"metabolised at 20 min, 5 µM",[19],8%
same,"metabolised at 20 min, 5 µM",[20],11%
same,IC50,Cytochrome P450 3A4 [21],> 30 µM
same,IC50,Cytochrome P450 3A4 [22],> 30 µM
same,IC50,[23],> 30 µM
same,"remaining at 4 h, 1 µM",[24],80 to 120%
same,"remaining at 4 h, 1 µM",[25],80 to 120%
same,Activity,L5178Y [26],Toxic
same,Activity,L5178Y [27],Toxic
same,MIC,Staphylococcus aureus [28],4 µg/mL
same,MIC,Staphylococcus aureus [29],4 µg/mL
same,MIC,Staphylococcus aureus [30],16 µg/mL
same,MIC,Staphylococcus aureus [31],4 µg/mL
same,MIC,Staphylococcus aureus [32],8 µg/mL
same,MIC,Staphylococcus aureus [33],16 µg/mL
same,MIC,Klebsiella pneumoniae [34],16 µg/mL
same,MIC,Klebsiella pneumoniae [35],64 µg/mL
same,MIC,Klebsiella pneumoniae [36],128 µg/mL
same,MIC,Klebsiella pneumoniae [37],64 µg/mL
same,MIC,Escherichia coli [38],512 µg/mL
same,Ratio,Staphylococcus aureus [39],1
same,Ratio,Staphylococcus aureus [40],4
same,Ratio,Staphylococcus aureus [41],1
same,Ratio,Staphylococcus aureus [42],2
same,Ratio,Staphylococcus aureus [43],4
same,Ratio,Klebsiella pneumoniae [44],4
same,Ratio,Klebsiella pneumoniae [45],8
same,Ratio,Klebsiella pneumoniae [46],4
same,Ratio,Escherichia coli [47],64
same,MIC,Escherichia coli [48],0.125 µg/mL
same,MIC,Escherichia coli [49],2 µg/mL
same,Ratio,Escherichia coli [50],32
same,Ratio,Escherichia coli [51],8
same,IC50,DNA gyrase,1.19 µM

# Source: ChEMBL document CHEMBL4177750, “Imidazopyrazinones (IPYs): Non-Quinolone Bacterial Topoisomerase Inhibitors Showing Partial Cross-Resistance with Quinolones” (J Med Chem, 2018)
